# Data taken from paper PMC5602898, “Ornithine uptake and the modulation of drug sensitivity in Trypanosoma brucei” (FASEB journal : official publication of the Federation of …, 2017).
# Legend:
# [1] = biological target: T1, TbAAT2-4 (Trypanosoma brucei, UniProt Q57Y06); assay: competition of radiolabelled histidine uptake in S. cerevisiae […]Δ8AA; assay type: cell-based; details: 200 μM histidine, 2 mM competitor, pH 5.5, 30 °C
# T1 construct: gene Tb04.1D20.560; full-length ORF amplified from T. brucei 427 genomic DNA, vector pDR197, expressed in Saccharomyces cerevisiae 22Δ8AA; no tag told
# T1 sequence (Q57Y06 entry or part of it): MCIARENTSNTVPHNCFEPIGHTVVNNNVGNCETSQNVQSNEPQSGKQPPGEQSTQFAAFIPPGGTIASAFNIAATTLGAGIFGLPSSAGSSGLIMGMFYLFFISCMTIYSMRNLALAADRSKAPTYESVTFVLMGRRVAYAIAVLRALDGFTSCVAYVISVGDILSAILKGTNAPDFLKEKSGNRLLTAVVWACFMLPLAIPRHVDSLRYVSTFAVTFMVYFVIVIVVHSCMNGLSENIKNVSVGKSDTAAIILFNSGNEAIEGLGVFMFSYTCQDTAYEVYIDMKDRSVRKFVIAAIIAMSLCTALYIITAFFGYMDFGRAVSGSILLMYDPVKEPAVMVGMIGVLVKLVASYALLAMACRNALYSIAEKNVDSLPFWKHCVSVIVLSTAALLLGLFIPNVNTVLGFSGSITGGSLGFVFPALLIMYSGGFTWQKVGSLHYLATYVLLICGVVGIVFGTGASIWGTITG
# [2] = system: N[C@@H](Cc1c[nH]cn1)C(=O)O; assay: cells, lysate or membranes; details: L-[3H]histidine, labelled compound, 50 mM potassium phosphate pH 5.5, 0.6 M sorbitol, 100 mM glucose preincubation, 30 °C, empty-vector uptake subtracted
# [3] = substrate: NCCC[C@H](N)C(=O)O; assay: cells, lysate or membranes; details: L-[3H]ornithine, labelled compound, 50 mM potassium phosphate pH 5.5, 0.6 M sorbitol, 100 mM glucose preincubation, 30 °C, empty-vector uptake subtracted
molecule,measurement,setting,value
N=C(N)NCCC[C@H](N)C(=O)O [arginine],% of control uptake at 2 mM,[1],"TbAAT2-4-mediated histidine uptake was inhibited by several amino acids, including arginine and lysine"
NCCCC[C@H](N)C(=O)O [lysine],% of control uptake at 2 mM,[1]; also supports yeast growth on lysine,"TbAAT2-4-mediated histidine uptake was inhibited by several amino acids, including arginine and lysine"
TbAAT2-4 (Trypanosoma brucei brucei TREU927),Km,[2],20.5 ± 8.6 µM
TbAAT10-1 (Trypanosoma brucei brucei TREU927) (protein) MSNVRGNITPAVVYASNEPNALNASDDGIKNYEAYEDIQSNNSESKFAPFSKLSKKIAAVIPPGGIFASAFNIAATTLGAGIFGLPSTANGSGLVMGILYLVIINCMTIYSMYNLALAAERSKALTYEGVTFVVLGRWAAYAIAAVRAFDGFTSCIAYVISVGDIFSSILKGTDAPEFWKGNTGNRLLTALLWLCCMLPLVIPRHVDSLRHVSTCAVTFMVYFVIVIVVHSCLNGLPENIKDVSVGKSDTAAIILFNSGNAAVEGLGVFMFSYTCQDTAYEIYMDMKDRSVRKFVISSAIAMCMCTVLYILTVFFGYMDFGRDVTGSILLMYDPVNEPAVMVGMIGVLVKLIASYALLAMACRNALYSIAGKNADVLPFWKHCASVVTLSVAALVLGLFIPKVNTVLGFAGSITGGSLGYIFPSLLLMYSGGFTWQRVGPFHYLVAYGLLISGVVGVVFGTGATIWGTIVG,Km,[3],4.3 ± 1.5 µM
